# Data as given in ChEMBL document CHEMBL1201862, “PubChem BioAssay data set” (2004).
#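 Dose response: 5 concentrations. Exposure: 48 h. Format: 96-well plates. Endpoint: linear interpolation; highest concentration if not reached. Abbreviation: GI50, concentration required for 50% inhibition of growth.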 Active and inactive are the calls of the source. Rule as the data show it: active = GI50 up to about 1.1 µM and inactive = higher.
# Legend:
# Experiment in all cases: NCI anticancer screen, dose series, 48 h
# HOP-92 = test system: HOP-92
# CAKI-1 = test system: CAKI-1
# OVCAR-5 = test system: OVCAR-5
# HT-29 = test system: HT-29
# KM-20L2 = test system: KM-20L2
# OVCAR-8 = test system: OVCAR-8
# RXF 631 = test system: RXF 631
# SNB-19 = test system: SNB-19
# SF-539 = test system: SF-539
# HL-60 = test system: HL-60
# KM12 = test system: KM12
# SF-268 = test system: SF-268
# K562 = test system: K562
# LXFL 529 = test system: LXFL 529
# UACC-257 = test system: UACC-257
# UO-31 = test system: UO-31
# M14 = test system: M14
# SK-MEL-2 = test system: SK-MEL-2
# RPMI-8226 = test system: RPMI-8226
# MOLT-4 = test system: MOLT-4
# LOX IMVI = test system: LOX IMVI
# SF-295 = test system: SF-295
# SR = test system: SR
# RXF 393 = test system: RXF 393
# OVCAR-3 = test system: OVCAR-3
# SW-620 = test system: SW-620
# HCT-116 = test system: HCT-116
# DMS-273 = test system: DMS-273
# SNB-78 = test system: SNB-78
# A498 = test system: A498
# TK-10 = test system: TK-10
# HOP-62 = test system: HOP-62
# DMS-114 = test system: DMS-114
# 786-0 = test system: 786-0
# OVCAR-4 = test system: OVCAR-4
# SK-MEL-5 = test system: SK-MEL-5
# DLD-1 = test system: DLD-1
# M19-MEL = test system: M19-MEL
# NCI-H226 = test system: NCI-H226
# SN12C = test system: SN12C
# XF498 = test system: XF498
# HCT-15 = test system: HCT-15
# COLO 205 = test system: COLO 205
# EKVX = test system: EKVX
# HCC 2998 = test system: HCC 2998
# NCI-H460 = test system: NCI-H460
# SK-OV-3 = test system: SK-OV-3
# IGROV-1 = test system: IGROV-1
# CCRF-CEM = test system: CCRF-CEM
# NCI-H522 = test system: NCI-H522
# Malme-3M = test system: Malme-3M
# UACC-62 = test system: UACC-62
# HOP-18 = test system: HOP-18
# NCI-H23 = test system: NCI-H23
# SNB-75 = test system: SNB-75
# A549 = test system: A549
# U-251 = test system: U-251
# ACHN = test system: ACHN
# SK-MEL-28 = test system: SK-MEL-28
compound,measurement,setting,value
O=C(O)c1ccc([I+]c2ccccc2)cc1,GI50,HOP-92,> 100 µM (inactive)
same,GI50,CAKI-1,> 100 µM (inactive)
same,GI50,OVCAR-5,> 100 µM (inactive)
same,GI50,HT-29,> 100 µM (inactive)
same,GI50,KM-20L2,> 100 µM (inactive)
same,GI50,OVCAR-8,> 100 µM (inactive)
same,GI50,RXF 631,> 100 µM (inactive)
same,GI50,SNB-19,> 100 µM (inactive)
same,GI50,SF-539,> 100 µM (inactive)
same,GI50,HL-60,> 100 µM (inactive)
same,GI50,KM12,> 100 µM (inactive)
same,GI50,SF-268,> 100 µM (inactive)
same,GI50,K562,> 100 µM (inactive)
same,GI50,LXFL 529,> 100 µM (inactive)
same,GI50,UACC-257,> 100 µM (inactive)
same,GI50,UO-31,> 100 µM (inactive)
same,GI50,M14,> 100 µM (inactive)
same,GI50,SK-MEL-2,> 100 µM (inactive)
same,GI50,RPMI-8226,> 100 µM (inactive)
same,GI50,MOLT-4,> 100 µM (inactive)
same,GI50,LOX IMVI,> 100 µM (inactive)
same,GI50,SF-295,> 100 µM (inactive)
same,GI50,SR,> 100 µM (inactive)
same,GI50,RXF 393,> 100 µM (inactive)
same,GI50,OVCAR-3,> 100 µM (inactive)
same,GI50,SW-620,> 100 µM (inactive)
same,GI50,HCT-116,> 100 µM (inactive)
same,GI50,DMS-273,> 100 µM (inactive)
same,GI50,SNB-78,> 100 µM (inactive)
same,GI50,A498,> 100 µM (inactive)
same,GI50,TK-10,> 100 µM (inactive)
same,GI50,HOP-62,> 100 µM (inactive)
same,GI50,DMS-114,> 100 µM (inactive)
same,GI50,786-0,> 100 µM (inactive)
same,GI50,OVCAR-4,> 100 µM (inactive)
same,GI50,SK-MEL-5,> 100 µM (inactive)
same,GI50,DLD-1,> 100 µM (inactive)
same,GI50,M19-MEL,> 100 µM (inactive)
same,GI50,NCI-H226,> 100 µM (inactive)
same,GI50,SN12C,> 100 µM (inactive)
same,GI50,XF498,> 100 µM (inactive)
same,GI50,HCT-15,> 100 µM
same,GI50,COLO 205,> 100 µM (inactive)
same,GI50,EKVX,> 100 µM (inactive)
same,GI50,HCC 2998,> 100 µM (inactive)
same,GI50,NCI-H460,> 100 µM (inactive)
same,GI50,SK-OV-3,> 100 µM (inactive)
same,GI50,IGROV-1,> 100 µM (inactive)
same,GI50,CCRF-CEM,> 100 µM (inactive)
same,GI50,NCI-H522,> 100 µM (inactive)
same,GI50,Malme-3M,> 100 µM (inactive)
same,GI50,UACC-62,> 100 µM (inactive)
same,GI50,HOP-18,> 100 µM (inactive)
same,GI50,NCI-H23,> 100 µM (inactive)
same,GI50,SNB-75,> 100 µM (inactive)
same,GI50,A549,> 100 µM (inactive)
same,GI50,U-251,> 100 µM (inactive)
COc1ccc(Nc2nc3c(N)cc(C(F)(F)F)cc3nc2-c2ccccc2)cc1,GI50,HOP-92,37.6 µM (inactive)
same,GI50,CAKI-1,> 100 µM (inactive)
same,GI50,OVCAR-5,> 100 µM (inactive)
same,GI50,KM-20L2,> 100 µM (inactive)
same,GI50,OVCAR-8,> 100 µM (inactive)
same,GI50,RXF 631,44.6 µM (inactive)
same,GI50,SNB-19,71.6 µM (inactive)
same,GI50,SF-539,> 100 µM (inactive)
same,GI50,HL-60,16.9 µM (inactive)
same,GI50,KM12,83 µM (inactive)
same,GI50,SF-268,75.7 µM (inactive)
same,GI50,K562,> 100 µM (inactive)
same,GI50,LXFL 529,78.2 µM (inactive)
same,GI50,UACC-257,> 100 µM (inactive)
same,GI50,UO-31,> 100 µM (inactive)
same,GI50,M14,79.6 µM (inactive)
same,GI50,SK-MEL-2,89.5 µM (inactive)
same,GI50,MOLT-4,> 100 µM (inactive)
same,GI50,LOX IMVI,> 100 µM (inactive)
same,GI50,SF-295,71.3 µM (inactive)
same,GI50,SR,21.9 µM (inactive)
same,GI50,ACHN,> 100 µM (inactive)
same,GI50,RXF 393,27.2 µM (inactive)
same,GI50,OVCAR-3,33.6 µM (inactive)
same,GI50,SW-620,> 100 µM (inactive)
same,GI50,HCT-116,> 100 µM (inactive)
same,GI50,DMS-273,> 100 µM (inactive)
same,GI50,SNB-78,60.4 µM (inactive)
same,GI50,A498,> 100 µM (inactive)
same,GI50,SK-MEL-28,> 100 µM (inactive)
same,GI50,TK-10,> 100 µM (inactive)
same,GI50,HOP-62,83.2 µM (inactive)
same,GI50,DMS-114,80.7 µM (inactive)
same,GI50,786-0,35.6 µM (inactive)
same,GI50,OVCAR-4,37.2 µM (inactive)
same,GI50,SK-MEL-5,57.1 µM (inactive)
same,GI50,DLD-1,> 100 µM (inactive)
same,GI50,M19-MEL,> 100 µM (inactive)
same,GI50,NCI-H226,68.9 µM (inactive)
same,GI50,SN12C,> 100 µM (inactive)
same,GI50,XF498,31.7 µM (inactive)
same,GI50,HCT-15,> 100 µM
same,GI50,COLO 205,> 100 µM (inactive)
same,GI50,EKVX,61.9 µM (inactive)
same,GI50,HCC 2998,> 100 µM (inactive)
same,GI50,NCI-H460,60.4 µM (inactive)
same,GI50,SK-OV-3,83 µM (inactive)
same,GI50,IGROV-1,52 µM (inactive)
same,GI50,CCRF-CEM,> 100 µM (inactive)
same,GI50,NCI-H522,44.3 µM (inactive)
same,GI50,Malme-3M,78.3 µM (inactive)
same,GI50,UACC-62,> 100 µM (inactive)
same,GI50,HOP-18,36.7 µM (inactive)
same,GI50,NCI-H23,69.7 µM (inactive)
same,GI50,SNB-75,28.8 µM (inactive)
same,GI50,A549,> 100 µM (inactive)
same,GI50,U-251,83.2 µM (inactive)
